# Assay results: patent US20260265199A1, “CRYSTALLINE FORMS OF (R)-2-AMINO-5-(4-(2-(3,5-DIFLUOROPHENYL)-2-HYDROXYACETAMIDO)-2-METHYLPHENYL)-N-ISOPROPYLNICOTINAMIDE AND METHODS FOR USING THE SAME” (HIBERCELL, INC., priority 2023, published 2026)
# Structures can show the parent of a compound that is named as a salt. Where two headings read alike, the source gives them in different places.
# Assay: Phase 1a study: pharmacokinetics after oral BID dosing in subjects with advanced solid tumors
# Format: in vivo, human
# Settings: for Tmax / Cmax / half-life / AUC(0-t) / Vd/F / AUC(0-inf) / AUC: human, in vivo; for Vd/F: read-out: Vz/F; for AUC: read-out: AUC0-τ
# Procedure: This example describes a first in human, Phase 1a, multi-center, open-label study to establish the maximum tolerated dose (MTD) and evaluate the safety and tolerability of oral dosing of Form A of the hemi-fumarate salt of the compound of formula (I) (Example 11) in a dose-escalating fashion. Form A of the hemi-fumarate salt was orally administered BID every day with food or within 30 minutes of completing a meal, starting at 25 mg, with doses escalating to 50, 100, 200, 400, 600, and 900 mg BID as safety allows for each 3-week treatment cycle.
# Up to 36 qualified subjects at 3 to 5 US sites, who have specific tumor types of renal cell carcinoma (RCC), gastric cancer (GC), metastatic breast cancer (MBC), small cell lung cancer (SCLC), and other solid tumors (e.g., non-small cell lung cancer, colorectal cancer, carcinoma of unknown primary) with the exception of rapidly progressing neoplasms (e.g., pancreatic cancer, glioblastoma, hepatocellular carcinoma) received Form A of the hemi-fumarate salt. Every effort was made to ensure approximately 50% of all subjects enrolled were subjects with RCC and GC. The starting dose level was 25 mg twice daily (BID), escalating to 50, 100, and 200 mg BID as safety allows, following the Bayesian Optimal Interval (BOIN) design. The safety monitoring committee (SMC) evaluated the dose-limiting toxicities (DLTs) and cumulative safety and PK data at the end of each cohort. Based on the SMC recommendations after a comprehensive review of PK and safety data for 200 mg BID dose, higher dose levels were evaluated, starting with 400 mg BID. The dose escalated to 600 mg and then 900 mg following the BOIN design starting with 1 subject at each escalated dose, until the MTD was reached or the sponsor or SMC declares the dose most appropriate for clinical development. This Phase 1a will be expanded into a Phase 1b/2a study through a protocol amendment and will then assess the dose and tumor type(s) selected in Phase 1a as the most appropriate for further clinical development. Subjects were dosed until unacceptable toxicity, disease progression per immune-related Response Evaluation Criteria in Solid Tumors (iRECIST), subject withdrawal, any other administrative reasons, or after 2 years of treatment, whichever occurs first. Efficacy was assessed via Response Evaluation Criteria in Solid Tumors 1.1 (RECIST 1.1); computed tomography (CT) scans were conducted every 6 weeks. Safety, including occurrence of dose-limiting toxicities (DLTs), pharmacokinetics (PK), and biomarker parameters were also assessed.
# Form A of the hemi-fumarate salt was orally administered BID with food or within 30 minutes of completing a meal, starting at 25 mg, with doses escalating to 50, 100, 200, 400, 600 and 900 mg BID as safety allowed. Up to 24 subjects were enrolled to ensure 12 subjects completed the study at the estimated MTD of Form A of the hemi-fumarate salt. Dosing occurred in 3-week cycles. Subjects spent Cycle 1/Day 1 (C1D1) in the clinic followed by an overnight stay for safety monitoring and PK sampling. Subjects were hospitalized for administration of first 3 doses: CID1 am and pm doses, and Cycle 1/Day 2 (C1D2) am dose; on Days 8, 15, and 21 the am dose was taken in the clinic after the planned PK samples. All other doses were self administered at home.
# Results of Cohorts 1 to 6 the study are detailed in Tables 47-50 below.
# [1] = po, 300 mg, 300 mg single oral dose, Cycle 1 Day 1, geometric mean, N = 4
# [2] = po, 300 mg, 300 mg twice daily oral, Cycle 1 Day 21, point estimate, N = 1
# [3] = po, 400 mg, 400 mg single oral dose, Cycle 1 Day 1, geometric mean, N = 3
# [4] = po, 600 mg, 600 mg single oral dose, Cycle 1 Day 1, point estimate, N = 1
# [5] = po, 600 mg, 600 mg twice daily oral, Cycle 1 Day 21, point estimate, N = 1
structure (smiles),measurement,setting,value
"Cc1cc(NC(=O)[C@H](O)c2cc(F)cc(F)c2)ccc1-c1cnc(N)c(C(=O)NC(C)C)c1 [Form A of the hemi-fumarate salt, (R)-2-amino-5-(4-(2-(3,5-difluorophenyl)-2-hydroxyacetamido)-2-methylphenyl)-N-isopropylnicotinamide]",Tmax,"po, 200 mg, 200 mg twice daily oral, Cycle 1 Day 21, median, N = 4",5 h
same,Cmax,[1],1140 ng/mL
same,half-life,"po, 300 mg, 300 mg single oral dose, Cycle 1 Day 1, geometric mean, N = 4, interpret with caution, terminal elimination phase not well captured, read-out: t1/2 (converted)",6.88 h
same,AUC(0-t),"po, 300 mg, 300 mg single oral dose, Cycle 1 Day 1, geometric mean, N = 4, read-out: AUC0-12",8610 ng·h/mL
same,AUC(0-t),"po, 300 mg, 300 mg single oral dose, Cycle 1 Day 1, geometric mean, N = 4, read-out: AUC0-last",8610 ng·h/mL
same,Vd/F,[1],619 L
same,Tmax,"po, 300 mg, 300 mg single oral dose, Cycle 1 Day 1, median, N = 4",7 h
same,Cmax,[2],3030 ng/mL
same,Tmax,[2],8 h
same,AUC(0-t),"po, 300 mg, 300 mg twice daily oral, Cycle 1 Day 21, point estimate, N = 1, read-out: AUC0-last",28400 ng·h/mL
same,Cmax,[3],649 ng/mL
same,half-life,"po, 400 mg, 400 mg single oral dose, Cycle 1 Day 1, geometric mean, N = 3, interpret with caution, terminal elimination phase not well captured, read-out: t1/2 (converted)",6.79 h
same,AUC(0-t),"po, 400 mg, 400 mg single oral dose, Cycle 1 Day 1, geometric mean, N = 3, read-out: AUC0-12",3830 ng·h/mL
same,AUC(0-t),"po, 400 mg, 400 mg single oral dose, Cycle 1 Day 1, geometric mean, N = 3, read-out: AUC0-last",3830 ng·h/mL
same,Vd/F,[3],240 L
same,Tmax,"po, 400 mg, 400 mg single oral dose, Cycle 1 Day 1, median, N = 3",2 h
same,half-life,"po, 400 mg, 400 mg twice daily oral, Cycle 1 Day 21, N = 2, interpret with caution, terminal elimination phase not well captured, read-out: t1/2 (converted)",10.8 h
same,Vd/F,"po, 400 mg, 400 mg twice daily oral, Cycle 1 Day 21, N = 2",122 L
same,Cmax,"po, 400 mg, 400 mg twice daily oral, Cycle 1 Day 21, geometric mean, N = 2",3680 ng/mL
same,AUC(0-t),"po, 400 mg, 400 mg twice daily oral, Cycle 1 Day 21, geometric mean, N = 2, read-out: AUC0-last",30800 ng·h/mL
same,half-life,"po, 400 mg, 400 mg twice daily oral, Cycle 1 Day 21, geometric mean, N = 2, read-out: t1/2, eff (converted)",38.5 h
same,Tmax,"po, 400 mg, 400 mg twice daily oral, Cycle 1 Day 21, median, N = 2",2.5 h
same,Cmax,[4],1460 ng/mL
same,Tmax,[4],2 h
same,AUC(0-t),"po, 600 mg, 600 mg single oral dose, Cycle 1 Day 1, point estimate, N = 1, read-out: AUC0-12",11600 ng·h/mL
same,AUC(0-t),"po, 600 mg, 600 mg single oral dose, Cycle 1 Day 1, point estimate, N = 1, read-out: AUC0-last",11600 ng·h/mL
same,Cmax,[5],5990 ng/mL
same,Tmax,[5],12 h
same,AUC(0-t),"po, 600 mg, 600 mg twice daily oral, Cycle 1 Day 21, point estimate, N = 1, read-out: AUC0-last",60800 ng·h/mL
same,half-life,"po, 600 mg, 600 mg twice daily oral, Cycle 1 Day 21, point estimate, N = 1, read-out: t1/2, eff (converted)",39.1 h
same,AUC(0-inf),"25 mg single oral dose, Cycle 1 Day 1, geometric mean, N = 3",2200 ng·h/mL
same,AUC,"25 mg twice daily oral, Cycle 1 Day 21, geometric mean, N = 3",4110 ng·h/mL
same,AUC(0-inf),"50 mg single oral dose, Cycle 1 Day 1, geometric mean, N = 3",5650 ng·h/mL
same,AUC,"50 mg twice daily oral, Cycle 1 Day 21, geometric mean, N = 3",9070 ng·h/mL
same,AUC,"100 mg twice daily oral, Cycle 1 Day 21, geometric mean, N = 3",11700 ng·h/mL
same,AUC(0-inf),"200 mg single oral dose, Cycle 1 Day 1, geometric mean, N = 5",18000 ng·h/mL
same,AUC,"200 mg twice daily oral, Cycle 1 Day 21, geometric mean, N = 4",27200 ng·h/mL
same,AUC(0-inf),"300 mg single oral dose, Cycle 1 Day 1, geometric mean, N = 4",4810 ng·h/mL
same,AUC,"300 mg twice daily oral, Cycle 1 Day 21, point estimate, N = 1",28400 ng·h/mL
same,half-life,"300 mg twice daily oral, Cycle 1 Day 21, point estimate, N = 1, read-out: t1/2, eff (converted)",19.4 h
same,AUC(0-inf),"400 mg single oral dose, Cycle 1 Day 1, geometric mean, N = 3",16300 ng·h/mL
same,AUC,"400 mg twice daily oral, Cycle 1 Day 21, geometric mean, N = 2",51200 ng·h/mL
same,AUC,"600 mg twice daily oral, Cycle 1 Day 21, point estimate, N = 1",60800 ng·h/mL
same,Exposure versus dose,"oral BID with food, 25 mg to 600 mg dose range, subjects with advanced solid tumors",increased roughly proportional to the increase in dose
same,Time to steady-state,"oral BID, based on similar trough concentrations on Cycle 1, Days 8, 15 and 21","achieved by Cycle 1, Day 8"
